According to the supplement of paper PMC10307832:

Assays:
Assay in all cases: relative viability (nuclei count vs DMSO), 5 days (fraction); higher = more cells survive
Pazopanib + Palbociclib = compound: Cc1ccc(Nc2nccc(N(C)c3ccc4c(C)n(C)nc4c3)n2)cc1S(N)(=O)=O [Pazopanib] + CC(=O)c1c(C)c2cnc(Nc3ccc(N4CCNCC4)cn3)nc2n(C2CCCC2)c1=O [Palbociclib] (partner 0.5 µM)
Outline: (§1)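 Nuclei were stained with Hoechst during a one-step fixation (final 0.05% Triton X-100, 1% formaldehyde, 1 ug/ml Hoechst) carried out 5 days after dosing, then counted on 4× images. The cells, lung cancer lines in 1536-well plates, had been dosed by pin tool the day after seeding with one drug alone or a fixed anchor-drug dose plus five library-drug doses (not always all listed) in √10 steps. Relative viability is the nuclei count in treated wells divided by that in vehicle wells, and each value is the median of duplicate plates.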

Ponatinib + Vorinostat = compound: Cc1ccc(C(=O)Nc2ccc(CN3CCN(C)CC3)c(C(F)(F)F)c2)cc1C#Cc1cnc2cccnn12 [Ponatinib] + O=C(CCCCCCC(=O)Nc1ccccc1)NO [Vorinostat] (partner 1 µM)
Outline: as §1

Pazopanib + OSI-027 = compound: Cc1ccc(Nc2nccc(N(C)c3ccc4c(C)n(C)nc4c3)n2)cc1S(N)(=O)=O [Pazopanib] + COc1cccc2cc(-c3nc([C@H]4CC[C@H](C(=O)O)CC4)n4ncnc(N)c34)[nH]c12 [OSI-027] (partner 0.5 µM)
Outline: as §1

Pazopanib + Vorinostat = compound: Cc1ccc(Nc2nccc(N(C)c3ccc4c(C)n(C)nc4c3)n2)cc1S(N)(=O)=O [Pazopanib] + O=C(CCCCCCC(=O)Nc1ccccc1)NO [Vorinostat] (partner 1 µM)
Outline: as §1

## UMC-11
Pazopanib + Palbociclib; first compound 0.01 µM
  relative viability: 0.305
Pazopanib + Palbociclib; first compound 0.03162 µM
  relative viability: 0.347
Pazopanib + Palbociclib; first compound 0.1 µM
  relative viability: 0.31
Pazopanib + Palbociclib; first compound 0.3162 µM
  relative viability: 0.358
Pazopanib + Palbociclib; first compound 1 µM
  relative viability: 0.32
Ponatinib + Vorinostat; first compound 0.002 µM
  relative viability: 0.411
Ponatinib + Vorinostat; first compound 0.006325 µM
  relative viability: 0.403
Ponatinib + Vorinostat; first compound 0.06325 µM
  relative viability: 0.51
Ponatinib + Vorinostat; first compound 0.2 µM
  relative viability: 0.486
Pazopanib + OSI-027; first compound 0.01 µM
  relative viability: 0.501
Pazopanib + OSI-027; first compound 0.03162 µM
  relative viability: 0.544
Pazopanib + OSI-027; first compound 0.1 µM
  relative viability: 0.442
Pazopanib + OSI-027; first compound 0.3162 µM
  relative viability: 0.504
Pazopanib + OSI-027; first compound 1 µM
  relative viability: 0.541
Pazopanib + Vorinostat; first compound 0.01 µM
  relative viability: 0.353
Pazopanib + Vorinostat; first compound 0.03162 µM
  relative viability: 0.306
Pazopanib + Vorinostat; first compound 0.1 µM
  relative viability: 0.368
Pazopanib + Vorinostat; first compound 0.3162 µM
  relative viability: 0.371
Pazopanib + Vorinostat; first compound 1 µM
  relative viability: 0.446
